Assay results as given in patent US6355616B1, “Derivative compounds derived from or based on bactericidal/permeability-increasing protein” (priority 1999, dated 2002).

Tested on: MDCK cells
Test: In vitro oral absorption screening, transepithelial transport across MDCK cell monolayers
Format: in vitro ADME, canine
Description: For these experiments, peptide-based constructs are screened for potential oral absorption in in vitro screening assays using MDCK and/or CACO-2 cells. Briefly, cultured monolayers of Madin-Derby canine kidney epithelial (MDCK) cells (ATCC Accession No. CCL-34) and/or CACO-2 (Human colon carcinoma) cells [Audus, K. L., et al. Phar. Res., 7:435-451 (1990) are grown upon collagen-coated, permeable-filter supports (Becton Dickinson, Mountain View, Calif.). The cells are grown to confluency and allowed to differentiate (e.g., about 3 days for MDCK cells or about 21 days for CACO-2 cells). The integrity of the monolayers is determined by measuring the transepithelial resistance. The cells are incubated with a peptide-based construct on the apical side for 2.5 hours in MDCK or CACO-2 screening. The transepithelial transport of the construct is measured by quantitative HPLC analysis of the incubation media on the basolateral side of the cells (forward transport). Radiolabelled mannitol and/or cortisone are used as positive controls. In addition, the efflux of the construct is measured by quantitative HLPC analysis of the incubation media on the apical side of the cells. This follows incubation of the cells with construct on the basolateral side for 2.5 hours. […]
Following the days post seeding, the cells are ready for transport experiments. […]
Apical control wells containing 1.5 mL TM with tritiated mannitol (^3H-mannitol, 1 μCi/mL; Dupont NEN Research Products, #NET-101, Boston, Mass.) are analyzed separately for counts per minute (cpm) of tritium to test the integrity of the MDCK cell monolayers. […]

`CC[C@@H](C)[C@@H](NC(=O)[C@@H](CC(C)C)NC(=O)[C@@H](Cc1c[nH]c2ccccc12)NC(=O)[C@@H](CCCCN)NC(=O)c1ccccc1O)C(=O)N[C@H](CCC(N)=O)C(=O)N[C@H](CC(C)C)C(=O)N[C@H](Cc1ccccc1)C(=O)N[C@H](Cc1c[nH]cn1)C(=O)N[C@H](CCCCN)C(=O)N[C@H](CCCCN)C(N)=O` [XMP.560] was tested, and the “cell absorption in MDCK cell screening assays” value was 2%, the “In Vitro Oral Availablity Screening (%) Forward” value (apical to basolateral, 2.5 hours, donor ~100 μg/mL) was “≧2%” and the “In Vitro Oral Availablity Screening (%) Efflux” value (basolateral to apical, 2.5 hours, donor ~100 μg/mL) was “≧2%”.
